Test results published in BindingDB's records for doi:10.1021/acschembio.5b00940 (University of Washington, 2016).

Target: T1, Serine/threonine-protein kinase/endoribonuclease IRE1 [547-977] (Homo sapiens, UniProt O75460)
T1 construct: 547-977
Assay: In vitro RNase Assay
Text: The fluorescence intensities were normalized by setting the signal for the reaction without IRE1α* to 0.

T1 sequence (O75460 547-977): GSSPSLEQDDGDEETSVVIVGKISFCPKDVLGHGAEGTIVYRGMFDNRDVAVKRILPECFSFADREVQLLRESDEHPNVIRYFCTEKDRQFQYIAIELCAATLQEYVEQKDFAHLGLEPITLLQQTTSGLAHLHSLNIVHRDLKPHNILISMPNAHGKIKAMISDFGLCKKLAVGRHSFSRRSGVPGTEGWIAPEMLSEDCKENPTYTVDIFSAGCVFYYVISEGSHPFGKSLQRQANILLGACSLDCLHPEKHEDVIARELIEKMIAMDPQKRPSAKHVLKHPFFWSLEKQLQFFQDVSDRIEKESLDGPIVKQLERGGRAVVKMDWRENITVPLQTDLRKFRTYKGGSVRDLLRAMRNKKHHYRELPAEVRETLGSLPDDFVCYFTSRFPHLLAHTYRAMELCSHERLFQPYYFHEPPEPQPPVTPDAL

**Q.** For `CC(C)(C)c1nc(-c2ccc(NC(=O)Nc3cccc(C(F)(F)F)c3)c3ccccc23)c2c(N)nccn12` [KIRA analog, 2], which IC50 is on record?
**A.** 120 nM

**Q.** For `CC1(c2nc(-c3ccc(NC(=O)Nc4cccc(C(F)(F)F)c4)c4ccccc34)c3c(N)nccn23)CC1` [KIRA analog, 3], which IC50 is on record?
**A.** 90 nM

**Q.** How did the IC50 turn out when `Nc1nccn2c(C3CCC3)nc(-c3ccc(NC(=O)Nc4cccc(C(F)(F)F)c4)c4ccccc34)c12` [KIRA analog, 4] was run?
**A.** 180 nM

**Q.** With `Nc1nccn2c(C3CC3)nc(-c3ccc(NC(=O)Nc4cccc(C(F)(F)F)c4)c4ccccc34)c12` [KIRA analog, 5] as the compound, how does the IC50 read?
**A.** 480 nM

**Q.** With `CC1(c2nc(-c3ccc(NC(=O)Nc4cccc(C(F)(F)F)c4)c4ccccc34)c3c(N)nccn23)COC1` [KIRA analog, 6] as the compound, how does the IC50 read?
**A.** 330 nM

**Q.** Which IC50 does the source give for `CC1(c2nc(-c3ccc(NC(=O)Nc4cccc(C(F)(F)F)c4)cc3F)c3c(N)nccn23)CC1` [KIRA analog, 7] here?
**A.** 390 nM

**Q.** For `Cc1cc(NC(=O)Nc2cccc(C(F)(F)F)c2)ccc1-c1nc(C2(C)CC2)n2ccnc(N)c12` [KIRA analog, 8], which IC50 is on record?
**A.** 1500 nM

**Q.** Which IC50 does the source give for `CC1(c2nc(-c3ccc(NC(=O)Nc4cccc(C(F)(F)F)c4)cc3Cl)c3c(N)nccn23)CC1` [KIRA analog, 9] here?
**A.** 2400 nM

**Q.** `Cc1c(NC(=O)Nc2cccc(C(F)(F)F)c2)ccc(-c2nc(C3(C)CC3)n3ccnc(N)c23)c1C` [KIRA analog, 10] was tested. Which IC50 did it give?
**A.** 1200 nM

**Q.** Which IC50 does the source give for `CC1(c2nc(-c3ccc(NC(=O)Nc4cccc(C(F)(F)F)c4)c(F)c3F)c3c(N)nccn23)CC1` [KIRA analog, 11] here?
**A.** 20000 nM

**Q.** For `CC1(c2nc(-c3ccc(NC(=O)Nc4ccccc4)c4ccccc34)c3c(N)nccn23)CC1` [KIRA analog, 12], which IC50 is on record?
**A.** 190 nM

**Q.** Which IC50 does the source give for `CC1(c2nc(-c3ccc(NC(=O)Nc4cccc(F)c4)c4ccccc34)c3c(N)nccn23)CC1` [KIRA analog, 13] here?
**A.** 220 nM

**Q.** `Cc1cccc(NC(=O)Nc2ccc(-c3nc(C4(C)CC4)n4ccnc(N)c34)c3ccccc23)c1` [KIRA analog, 14] was tested. Which IC50 did it give?
**A.** 260 nM

**Q.** For `COc1cccc(NC(=O)Nc2ccc(-c3nc(C4(C)CC4)n4ccnc(N)c34)c3ccccc23)c1` [KIRA analog, 15], which IC50 is on record?
**A.** 310 nM

**Q.** For `CSc1cccc(NC(=O)Nc2ccc(-c3nc(C4(C)CC4)n4ccnc(N)c34)c3ccccc23)c1` [KIRA analog, 16], which IC50 is on record?
**A.** 140 nM

**Q.** `COc1cc(NC(=O)Nc2ccc(-c3nc(C4(C)CC4)n4ccnc(N)c34)c3ccccc23)cc(C(F)(F)F)c1` [KIRA analog, 17] was tested. Which IC50 did it give?
**A.** 290 nM

**Q.** `CC1(c2nc(-c3ccc(NC(=O)Nc4cc(F)cc(C(F)(F)F)c4)c4ccccc34)c3c(N)nccn23)CC1` [KIRA analog, 18] was tested. Which IC50 did it give?
**A.** 610 nM

**Q.** How did the IC50 turn out when `CNS(=O)(=O)c1cccc(NC(=O)Nc2ccc(-c3nc(C4(C)CC4)n4ccnc(N)c34)c3ccccc23)c1` [KIRA analog, 19] was run?
**A.** 1600 nM

**Q.** `CN1CCN(Cc2ccc(NC(=O)Nc3ccc(-c4nc(C5(C)CC5)n5ccnc(N)c45)c4ccccc34)cc2C(F)(F)F)CC1` [KIRA analog, 20] was tested. Which IC50 did it give?
**A.** 190 nM

**Q.** With `CN1CCN(Cc2ccc(NC(=O)Nc3ccc(-c4nc(C5(C)CC5)n5ccnc(N)c45)c4ccccc34)cc2)CC1` [KIRA analog, 21] as the compound, how does the IC50 read?
**A.** 340 nM

**Q.** How did the IC50 turn out when `Cc1cc(NC(=O)Nc2ccc(-c3nc(C4(C)CC4)n4ccnc(N)c34)c3ccccc23)n[nH]1` [KIRA analog, 22] was run?
**A.** 7100 nM

**Q.** `CC1(c2nc(-c3ccc(NC(=O)NCc4ccccc4)c4ccccc34)c3c(N)nccn23)CC1` [KIRA analog, 23] was tested. Which IC50 did it give?
**A.** 3600 nM

**Q.** With `CC1(c2nc(-c3ccc(NC(=O)NCCc4ccccc4)c4ccccc34)c3c(N)nccn23)CC1` [KIRA analog, 24] as the compound, how does the IC50 read?
**A.** 4100 nM

**Q.** How did the IC50 turn out when `CC1(c2nc(-c3ccc(NC(=O)NC4CCCCC4)c4ccccc34)c3c(N)nccn23)CC1` [KIRA analog, 25] was run?
**A.** 2200 nM

**Q.** Which IC50 does the source give for `CC1(c2nc(-c3ccc(NC(=O)N4CCOCC4)c4ccccc34)c3c(N)nccn23)CC1` [KIRA analog, 26] here?
**A.** 60000 nM

**Q.** `CC1(c2nc(-c3ccc(NC(=O)N4CCCCC4)c4ccccc34)c3c(N)nccn23)CC1` [KIRA analog, 27] was tested. Which IC50 did it give?
**A.** 60000 nM

**Q.** Which IC50 does the source give for `CC1(c2nc(-c3ccc(NC(=O)NC4CC4)c4ccccc34)c3c(N)nccn23)CC1` [KIRA analog, 28] here?
**A.** 6300 nM

**Q.** Which IC50 does the source give for `CN(C(=O)Nc1ccc(-c2nc(C3(C)CC3)n3ccnc(N)c23)c2ccccc12)c1cccc(C(F)(F)F)c1` [KIRA analog, 29] here?
**A.** 19000 nM

**Q.** `CC(C)(C)c1nc(-c2ccc(NC(=O)N3CCN(c4cccc(C(F)(F)F)c4)C3=O)c3ccccc23)c2c(N)nccn12` [KIRA analog, 30] was tested. Which IC50 did it give?
**A.** > 60000 nM

**Q.** For `CC1(c2nc(-c3ccc(NC(=O)OCCc4ccccc4)c4ccccc34)c3c(N)nccn23)CC1` [KIRA analog, 31], which IC50 is on record?
**A.** 60000 nM

**Q.** With `CC1(c2nc(-c3ccc(NC(=O)OCC(=O)c4ccccc4)c4ccccc34)c3c(N)nccn23)CC1` [KIRA analog, 32] as the compound, how does the IC50 read?
**A.** 60000 nM
